Our source for the relative viability values is the supplement of paper PMC10307832.

Common to all, as to experiment: relative viability (nuclei count vs DMSO), 5 days (fraction); higher = more cells survive
Compound in assay [1]: C1=CC2=NC=CN=C2C=C1/C=C/3\C(=O)NC(=O)S3 + CC(=O)Nc1cccc(-n2c(=O)n(C3CC3)c(=O)c3c(Nc4ccc(I)cc4F)n(C)c(=O)c(C)c32)c1 [Trametinib] (partner 0.02 µM)
Summed up:
(§1)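 Relative viability equals treated-well nuclei counts divided by vehicle-well nuclei counts. Counts came from 4× images of lung cancer cell lines grown in 1536-well plates for 5 days after pin-tool dosing on the day after seeding. Dosing used one drug alone or a fixed anchor-drug dose plus five library-drug doses (not always all listed) in √10 steps, and values are medians of duplicate plates.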

Compound in the assay “BGJ398 + Bortezomib”: CCN1CCN(c2ccc(Nc3cc(N(C)C(=O)Nc4c(Cl)c(OC)cc(OC)c4Cl)ncn3)cc2)CC1 [BGJ398] + CC(C)C[C@H](NC(=O)[C@H](Cc1ccccc1)NC(=O)c1cnccn1)B(O)O [Bortezomib] (partner 0.002 µM)
A digest of the protocol: as §1

Compound in the assay “BGJ398 + Luminespib”: CCN1CCN(c2ccc(Nc3cc(N(C)C(=O)Nc4c(Cl)c(OC)cc(OC)c4Cl)ncn3)cc2)CC1 [BGJ398] + CCNC(=O)c1noc(-c2cc(C(C)C)c(O)cc2O)c1-c1ccc(CN2CCOCC2)cc1 [Luminespib] (partner 0.01 µM)
A digest of the protocol:
as §1

Compound in the assay “BGJ398 + Pemetrexed”: CCN1CCN(c2ccc(Nc3cc(N(C)C(=O)Nc4c(Cl)c(OC)cc(OC)c4Cl)ncn3)cc2)CC1 [BGJ398] + Nc1nc2[nH]cc(CCc3ccc(C(=O)N[C@@H](CCC(=O)O)C(=O)O)cc3)c2c(=O)[nH]1 [Pemetrexed] (partner 0.2 µM)
Summed up:
as §1

As to UMC-11, the relative viability worked out at 0.697 in assay [1] (first compound 0.02 µM); 0.792 in assay [1] (first compound 0.06325 µM); 0.75 in assay [1] (first compound 0.2 µM); 0.663 in assay [1] (first compound 0.6325 µM); 0.81 in assay [1] (first compound 2 µM); 0.759 with BGJ398 + Bortezomib (first compound 0.01 µM). The relative viability with BGJ398 + Bortezomib (first compound 0.03162 µM) came to 0.632; with BGJ398 + Bortezomib (first compound 0.1 µM) it was 0.706; with BGJ398 + Bortezomib (first compound 0.3162 µM) it was 0.661; with BGJ398 + Bortezomib (first compound 1 µM), 0.475; in the assay with BGJ398 + Luminespib (first compound 0.01 µM), 1.02; with BGJ398 + Luminespib (first compound 0.03162 µM), 1.08. Also, the relative viability in the assay with BGJ398 + Luminespib (first compound 0.1 µM) came out at 0.994; with BGJ398 + Luminespib (first compound 0.3162 µM) it was 0.984; with BGJ398 + Luminespib (first compound 1 µM), 1.01; with BGJ398 + Pemetrexed (first compound 0.01 µM), 0.799; with BGJ398 + Pemetrexed (first compound 0.03162 µM), 0.747; with BGJ398 + Pemetrexed (first compound 0.1 µM) it was 0.854. Moreover, the results for the relative viability in the assay with BGJ398 + Pemetrexed (first compound 0.3162 µM) and with BGJ398 + Pemetrexed (first compound 1 µM) were 0.814 and 0.758, respectively.
